Biological target: recombinant Chk2 protein kinase (Homo sapiens, UniProt O96017)
Test: Chk2 biochemical assay (CHK2/substrate peptide filter binding)
Settings: 60 μM ATP, 1.4 nM Chk2 enzyme
Procedure: The effect of compounds on Chk2 biochemical activity can be determined using a CHK2/substrate peptide filter binding assay. In this assay, a synthetic peptide based on the amino acid sequence residues 206-225 of Cdc25C, is used as a phospho-acceptor substrate for recombinant Chk2 protein kinase. Using γ-^33P-ATP as the phospho-donor substrate, Chk2 transfers the radioactive γ-^33phosphate group to the synthetic peptide. The reaction is measured by capturing the peptide substrate on a cation exchange paper filter plate and scintillation counting of emitted beta particles.
The kinase reactions (40 μL reaction volumes) are performed in 96-well V-bottom polystyrene plates. Reactions are initiated with the addition of Chk2 enzyme. […]
Following Chk2 enzyme addition, the reactions are incubated at room temperature for 90 min, and then terminated with the addition of 140 μL of phosphoric acid. […] After sitting for 4 h at room temperature, the radioactivity in the plate is measured using a MicroBeta Trilux microplate scintillation counter (Perkin Elmer).
For IC50 determination, the percent inhibition for each concentration is calculated using the […] from controls run on each plate. […] Absolute IC50 values are calculated from the resulting curve. […]

recombinant Chk2 protein kinase, sequence (O96017 whole entry): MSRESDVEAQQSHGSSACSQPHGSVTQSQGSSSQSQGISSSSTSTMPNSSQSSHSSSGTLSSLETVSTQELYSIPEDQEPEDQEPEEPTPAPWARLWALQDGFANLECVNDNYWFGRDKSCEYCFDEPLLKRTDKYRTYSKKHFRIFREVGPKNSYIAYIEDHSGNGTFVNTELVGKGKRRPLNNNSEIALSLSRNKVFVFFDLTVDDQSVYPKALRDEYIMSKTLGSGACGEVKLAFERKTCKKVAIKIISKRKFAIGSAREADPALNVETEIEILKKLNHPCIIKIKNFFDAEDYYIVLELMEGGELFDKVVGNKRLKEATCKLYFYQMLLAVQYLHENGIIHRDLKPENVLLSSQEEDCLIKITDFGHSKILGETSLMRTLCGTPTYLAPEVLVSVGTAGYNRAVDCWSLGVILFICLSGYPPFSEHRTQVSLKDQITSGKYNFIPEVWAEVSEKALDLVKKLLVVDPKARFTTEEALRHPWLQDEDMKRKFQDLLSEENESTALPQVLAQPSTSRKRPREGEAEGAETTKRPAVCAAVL

IC50: 11 nM
Structure (SMILES): COc1nc(C)ccc1-c1cc(Nc2cncc(O[C@@H]3CCCNC3)n2)[nH]n1 [Example 1, (R)-[5-(2-Methoxy-6-methyl-pyridin-3-yl)-2H-pyrazol-3-yl]-[6-(piperidin-3-yloxy)-pyrazin-2-yl]-amine]
